Among the data in PubChem BioAssay AID434987 (Southern Research Specialized Biocontainment Screening …, 2010) are IC50 and IC90 values, retold here.

Active and inactive are the calls of the source. The rule behind the calls is not given here.

The assay relates to M. tuberculosis H37Rv growth inhibition with meropenem. In words: dose response, H37Rv, with and without meropenem (AID 434987).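 Note: growth over 7 days at 37 °C before Alamar Blue read on day 9.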
[1] abbreviates: M. tuberculosis H37Rv growth inhibition, measured here: IC50 without meropenem.
The mark [2] stands for this setting: M. tuberculosis H37Rv growth inhibition, measured here: IC90 without meropenem.
[3] abbreviates: measured here: IC90 with meropenem.

For orientation: IC50 means the concentration that inhibits the measured activity by half. By IC90 is commonly meant the point of the concentration-response curve where the effect stands at 90%. Lower therefore signals an effect from little substance. In the case of `COc1c(F)c(F)c(C(=O)Nc2c(C)cc(Br)cc2C)c(F)c1F`, the IC50 was 4.58 µM. Moreover, the IC50 under setting [1] is above 100 µM. Besides, the IC90 under setting [2] is above 100 µM. Under setting [3], this molecule yielded an IC90 above 100 µM.

For the molecule `CN(C)C1=C(Cl)C(=O)N(c2ccc(Cl)c(Cl)c2)C1=O`, the half-maximal inhibitory concentration (IC50) is 2.73 µM. In addition, under setting [1], the IC50 was found to be 7.91 µM. Besides, the IC90 under setting [2] was 24 µM. The same molecule showed an IC90 under setting [3] of 14.9 µM.

For the molecule `C=CCSc1nnc(-c2cc3c(-c4ccccc4)nn(C)c3s2)n1C`, the IC50 is 26 µM (inactive). This molecule had a half-inhibitory concentration (IC50) under setting [1] of 52.4 µM. The molecule also displayed an IC90 under setting [2] of 92 µM. Under setting [3], this molecule yielded an IC90 above 100 µM.

For the molecule `COc1ccc2oc(=N)c(C(=O)Nc3ccccc3)cc2c1`, the IC50 is > 100 µM (inactive). The half-maximal inhibitory concentration (IC50) under setting [1] was above 100 µM. Under setting [2], the IC90 is above 100 µM. The same molecule returned an IC90 under setting [3] above 100 µM.

For `CCO[C@H]1OC(C(=O)NCc2nc3ccccc3[nH]2)=C[C@@H](c2cn(C(C)=O)c3ccccc23)[C@@H]1CCCO`, the IC50 was 90.7 µM (inactive). For the same molecule, the IC50 under setting [1] worked out at 80 µM. The same molecule had an IC90 under setting [2] above 100 µM. In addition, the IC90 under setting [3] is above 100 µM.

On to `O=C(Cn1cnc2sc3c(c2c1=O)CCCC3)NCC(=O)Nc1ccccc1F`, for which the IC50 is 88.3 µM (inactive). Further, under setting [1], the IC50 was above 100 µM. In addition, the IC90 under setting [2] was above 100 µM. Under setting [3], this molecule yielded an IC90 of 95.5 µM.

Regarding `CCn1c(=O)n(CC)c2cc(N3CCCC3)c(NC(=O)c3cc(Br)ccc3OC)cc21`, the IC50 was > 100 µM (inactive). The molecule further displayed an IC50 under setting [1] above 100 µM. Also, the IC90 under setting [2] was above 100 µM. Under setting [3], this molecule displayed an IC90 above 100 µM.

With `COc1ccc(Cl)cc1NC(=O)C/C(C)=N/NC(=O)CC#N`, the IC50 is 7.99 µM. The IC50 under setting [1] is above 100 µM. Also, the IC90 under setting [2] was above 100 µM. Further, the IC90 under setting [3] is above 100 µM.

Consider `COc1ccc(-c2sc3cc(OC)c(OC)cc3c2C#CCCO)cc1`, for which the IC50 was > 100 µM (inactive). This molecule registered an IC50 under setting [1] above 50 µM. The IC90 under setting [2] was above 50 µM. The same molecule gave an IC90 under setting [3] above 100 µM.

Consider `Cc1ccc(C)c(NC(=O)C(Sc2nc3ccccc3c(=O)n2CC(C)C)c2ccccc2)c1` (stereo not drawn), for which the IC50 is 58.8 µM (inactive). The IC50 under setting [1] was above 100 µM. Besides, the IC90 under setting [2] was above 100 µM. Under setting [3], this molecule gave an IC90 above 100 µM.

Take `CCc1ccc2nc(/N=C(\N)NC(=O)c3ccccc3)nc(C)c2c1`: the IC50 was 1.02 µM. Further, the IC50 under setting [1] came out at 22.4 µM. Also, the 90% effect concentration (IC90) under setting [2] was above 50 µM. Also, under setting [3], the IC90 was above 100 µM.

Consider `CCOC(=O)Cn1c(C)cc(=O)c2cccc(C)c21`, for which the IC50 was 26.4 µM. Besides, the IC50 under setting [1] is above 100 µM. Also, under setting [2], the IC90 was above 100 µM. Under setting [3], the IC90 is above 100 µM.

As to `CCCOc1ccc(C2Nc3cccc4cccc(c34)N2)cc1`, the IC50 was > 100 µM (inactive). Besides, the concentration for half-maximal inhibition (IC50) under setting [1] is above 100 µM. The molecule further displayed an IC90 under setting [2] above 100 µM. Also, the IC90 under setting [3] was above 100 µM.

Take `CCCCOc1ccc(C(=O)Oc2cccnc2)cc1`: the IC50 is 19.5 µM. The molecule also returned a half-inhibitory concentration (IC50) under setting [1] above 100 µM. Besides, under setting [2], the IC90 was above 100 µM. The same molecule registered an IC90 under setting [3] above 100 µM.

With `O=C(CCN1C(=O)c2ccccc2S1(=O)=O)Nc1ccc(Cl)cc1`, the IC50 was > 100 µM (inactive). The IC50 under setting [1] is above 100 µM. Moreover, the IC90 under setting [2] was above 100 µM. Besides, the IC90 under setting [3] was above 100 µM.

Turning to `CS/C(N)=N/N=C/c1cc(Br)cc(Br)c1O`, the IC50 was 19.7 µM (inactive). Also, the IC50 under setting [1] was 34.7 µM. Also, under setting [2], the IC90 was above 100 µM. Besides, the IC90 under setting [3] is above 100 µM.

Turning to `CCOC(=O)/C(C#N)=C/c1ccc(OCC(=O)Nc2ccccc2)c(OC)c1`, the IC50 is 98.4 µM (inactive). Also, under setting [1], the IC50 was above 100 µM. The IC90 under setting [2] was above 100 µM. The IC90 under setting [3] was above 100 µM.

Take `Cc1ccc(OCC(=O)N/N=C/c2cn(C)c3ccccc23)cc1`: the IC50 was 24.7 µM. The IC50 under setting [1] is above 100 µM. This molecule also had an IC90 under setting [2] above 100 µM. Further, the IC90 under setting [3] is above 100 µM.

For `CSc1cccc(NC(=O)c2ccc(Cl)nc2)c1`, the IC50 is > 100 µM (inactive). This molecule came in with an IC50 under setting [1] above 100 µM. Also, under setting [2], the IC90 is above 100 µM. The IC90 under setting [3] is above 100 µM.

With `CCC(CC)c1nnc(NC(=O)c2ccc(N3CCCCC3)c([N+](=O)[O-])c2)s1`, the IC50 was 9.31 µM. Under setting [1], this molecule yielded an IC50 of 75.9 µM. The same molecule displayed an IC90 under setting [2] above 100 µM. Moreover, the IC90 under setting [3] came to 44 µM.

For the molecule `Cc1ccc(CN2C(=O)N/C(=C\c3ccc(-c4ccc(C(=O)O)cc4C)o3)C2=O)cc1`, the IC50 is 5.14 µM. For the same molecule, under setting [1], the IC50 was 23.8 µM. The molecule further registered an IC90 under setting [2] above 100 µM. Besides, the IC90 under setting [3] was 14.7 µM.

Consider `CCN(CC(=O)Nc1ccc2c(c1)OCCO2)C(=O)c1ccc([N+](=O)[O-])s1`, for which the IC50 is 23.6 µM (inactive). The IC50 under setting [1] was 26.7 µM. Under setting [2], this molecule displayed an IC90 of 50.7 µM. The molecule further gave an IC90 under setting [3] of 26 µM.
